“And” between values parts separate entries of the source, which are not always exact repeats. Equal values may be shown once.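 Method: 48-hour compound exposure of cells in 96-well plates, five concentrations, linear interpolation of endpoints. GI50: concentration for 50% inhibition of growth. TGI: total growth inhibition.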
Experiments:
Assay in all cases: NCI-60 cell line screen, 48 h
[1] = system: HCT-15 colon
[2] = system: MOLT-4 leukemia
[3] = system: NCI-H460 lung
[4] = system: PC-3 prostate
[5] = system: RPMI-8226 leukemia
[6] = system: SK-MEL-28 melanoma
[7] = system: SK-OV-3 ovarian
[8] = system: TK-10 renal
[9] = system: U251 CNS
[10] = system: NCI/ADR-RES ovarian

Row | Structure (SMILES) | TGI [1] [µM] | TGI [2] [µM] | TGI [3] | TGI [4] | TGI [5] [µM] | TGI [6] [µM] | TGI [7] | TGI [8] [µM] | TGI [9] [µM] | TGI [10] | GI50 [10] [µM] | GI50 [6] [µM] | GI50 [7]
1 | COc1ccc(N=C(SSC(=Nc2ccc(OC)cc2)c2ccc([N+](=O)[O-])o2)c2ccc([N+](=O)[O-])o2)cc1 | 2.03 | > 31.3 | > 24.3 µM | 2.94 µM | > 100 | > 19.7 | 11.1 µM | 7.55 | 1.62 |  |  |  | 
2 | Nc1ccc2ncc(Nc3ccc(Cl)c(Cl)c3)nc2c1 | > 100 | 65.1 | > 100 µM |  | > 100 | 84.1 | > 100 µM | > 100 | 80.1 |  |  |  | 
3 | Cc1[nH]n(C(=O)c2ccc(Cl)cc2)c(=O)c1/C=C1\C(O)=CC(=O)c2ccccc21 |  | > 100 | > 100 µM |  | > 100 | > 100 | > 100 µM | > 100 | > 100 |  |  |  | 
4 | Nn1c(=S)[nH]nc(/C=C/c2c(O)ccc3ccccc23)c1=O | 17.9 | 86.1 | 76.5 µM | > 100 µM | > 100 | 73.5 | 95.4 µM |  | > 100 | 14.4 µM |  |  | 
5 | CC1=C(C(=O)OC(C)(C)C)C(c2ccc([N+](=O)[O-])cc2)C(C(=O)OC(C)(C)C)=C(C)N1 | 62.5 | 41.6 | 38.6 µM | 45.1 µM | 54 | 43.4 | 73.3 µM | 38.1 | 39.3 |  |  |  | 
6 | CO/C(N)=C(\C#N)N=Cc1cccs1 | > 100 | > 100 | > 100 µM | > 100 µM |  | > 100 | > 100 µM | > 100 | > 100 | > 100 µM |  |  | 
7 | Clc1cc2ncn(C3CCCO3)c2cc1Cl (stereo not drawn) | > 100 | > 100 |  | > 100 µM | > 100 | > 100 | > 100 µM | > 100 | > 100 | > 100 µM |  |  | 
8 | CN1OC(CO)CC12C1CC3CC(C1)CC2C3 (stereo not drawn) | > 100 | > 100 | > 100 µM |  | > 100 | > 100 | > 100 µM | > 100 | > 100 |  |  |  | 
9 | O=CC12CCCN1CCC2 | > 100 | > 100 | > 100 µM | > 100 µM |  | > 100 | > 100 µM | > 100 | > 100 | > 100 µM |  |  | 
10 | Cc1ccc(C(=O)C2CC3(CCC2(O)c2ccc(C)cc2)CC(=O)Nc2ccccc2C3=O)cc1 (stereo not drawn) | > 100 | > 100 | > 100 µM | > 100 µM |  | > 100 | > 100 µM | > 100 | > 100 | > 100 µM |  |  | 
11 | CCCCCCCCCCCC1=C(O)C(=O)C=C(O)C1=O | 49.3 | 44.1 | 9.98 µM |  | 19.3 | 37.5 | 21.2 µM |  | 22.1 | 16.4 µM |  |  | 
12 | O=C(C[N+]1(c2ccccc2)CCOCC1)c1ccccc1 | > 100 | > 100 | > 100 µM | > 100 µM |  | 0.0908 |  | > 100 | > 100 | > 100 µM |  |  | 
13 | CC(=O)Oc1cc(OC(C)=O)c2c(c1C)CC[C@@H]1[C@@H]2CC[C@]2(C)[C@@H](OC(C)=O)CC[C@@H]12 | 33.3 | 36.1 | 34.1 µM | 29 µM | 31.3 | 33 |  | 35 | 31.9 | 57.6 µM |  |  | 
14 | NS(=O)(=O)C1CCCCC1C(=O)NNC(=O)C(=O)Nc1nc(=S)[nH][nH]1 (stereo not drawn) | > 100 | > 100 | > 100 µM |  | > 100 | > 100 | > 100 µM | > 100 | > 100 |  |  |  | 
15 | CCCCCCCCCCCCCCCC(=O)OCC(COP(=O)(O)OCCNC(=O)CCSSc1ccccn1)OC(=O)CCCCCCCCCCCCCCC (stereo not drawn) | > 100 | > 100 | > 100 µM | > 100 µM | > 100 | > 100 | > 100 µM |  | > 100 | > 100 µM |  |  | 
16 | COC1=C(C)C(=O)C2=C(C1=O)C1C3CC4=C(C(=O)C(OC)=C(C)C4=O)C(CNC(=O)C(C)=O)N3C(C#N)C(C2)N1C (stereo not drawn) |  |  | 0.0318 µM and 0.211 µM and 0.151 µM | 0.195 µM and 0.0778 µM |  |  | 0.417 µM and 1.55 µM | 3.76 |  | 4.05 µM and 2.76 µM | 1.16 | 0.000169 | 0.00656 µM and 0.0382 µM
17 | O=C1Cc2c([nH]c3c(Br)cccc23)-c2ccccc2N1 | > 100 | 43.6 | > 100 µM | > 100 µM | > 100 |  | > 100 µM |  | > 100 | > 100 µM |  |  | 
18 | Oc1[nH]c2ccccc2c1N=Nc1nc(-c2ccccc2)cs1 | > 100 | > 100 | 46.6 µM | 51.8 µM |  | > 100 | > 100 µM | > 100 | > 100 | 83 µM |  |  | 
